Here are results for twelve compounds from patent publication US20240400555A1 (Initial Therapeutics, Inc., priority 2023, published 2024).

A value given as a limit tells only on which side of the number the result lay.

For this experiment, the system named is MV-4-11 cells. As to the kind of experiment: Cell Viability Assay in MV-4-11 Cells. It is filed as cell-based. Conditions: Homo sapiens, MV4-11, 72 h, MV-4-11 cells, 72 h, Cell-Titer Glo; read-out: IC50. The procedure, abridged: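 Luminescent ATP read-out (CellTiter-Glo) after 72 h compound treatment of MV-4-11 leukaemia cells (7,000 per well, IMDM plus 10% FBS). Values expressed relative to DMSO control and derived by four-parameter non-linear regression.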
On to `CNC(=O)c1cc(-c2cc3c(N(C(=O)c4ccc(-n5nnc6cccnc65)cc4F)[C@@H]4CCCNC4)nccc3s2)ccn1` [Example 374, 4-[4-[[2-fluoro-4-(triazolo[4,5-b]pyridin-3-yl)benzoyl]-[(3R)-3-piperidyl]amino]thieno[3,2-c]pyridin-2-yl]-N-methyl-pyridine-2-carboxamide], for which the IC50 is 600 nM.

Regarding `Cc1cccc2ccnc(N(C(=O)c3ccc(-c4cnn(C)c4N)cc3F)[C@@H]3CCCNC3)c12` [Example 388, 4-(5-amino-1-methyl-pyrazol-4-yl)-2-fluoro-N-(8-methyl-1-isoquinolyl)-N-[(3R)-3-piperidyl]benzamide], the half-inhibitory concentration (IC50) was determined as 76 nM.

Take `Cc1cc(-c2cn(C)nn2)ccc1C(=O)N(c1nccc2cccc(C)c12)C1CCCNC1` (stereo not drawn) [Example 705, 2-methyl-4-(1-methyl-1H-1,2,3-triazol-4-yl)-N-(8-methylisoquinolin-1-yl)-N-(piperidin-3-yl)benzamide]: the IC50 stood at 510 nM.

Turning to `Cc1cccc2ccnc(N(C(=O)N3CCCC(c4ncc(-c5ccccc5)[nH]4)C3)[C@@H]3CCCNC3)c12` (stereo partly drawn) [Example 341, N-(8-methylisoquinolin-1-yl)-3-(5-phenyl-1H-imidazol-2-yl)-N—((R)-piperidin-3-yl)piperidine-1-carboxamide], the half-inhibitory concentration (IC50) came to 370 nM.

As to `COCc1cn(-c2ccc(C(=O)N(c3nccc4scc(C)c34)[C@@H]3CCCNC3)cc2)nn1` [Example 630, (R)-4-(4-(methoxymethyl)-1H-1,2,3-triazol-1-yl)-N-(3-methylthieno[3,2-c]pyridin-4-yl)-N-(piperidin-3-yl)benzamide], the concentration for half-maximal inhibition (IC50) is 160 nM.

For `Cc1nnc(-c2ccc(C(=O)N(c3nccc4sc(-c5ccncc5)cc34)[C@@H]3CCCNC3)c(F)c2)s1` [Example 593, 2-fluoro-4-(5-methyl-1,3,4-thiadiazol-2-yl)-N-[(3R)-3-piperidyl]-N-[2-(4-pyridyl)thieno[3,2-c]pyridin-4-yl]benzamide], the concentration for half-maximal inhibition (IC50) is 780 nM.

Take `O=C(c1ccc(-n2nnc3cccnc32)cc1F)N(c1nccc2sc(Cc3ccccc3)cc12)[C@@H]1CCCNC1` [Example 466, N-(2-benzylthieno[3,2-c]pyridin-4-yl)-2-fluoro-N-[(3R)-3-piperidyl]-4-(triazolo[4,5-b]pyridin-3-yl)benzamide]: the half-maximal inhibitory concentration (IC50) was 440 nM.

For the compound `Cc1cn(-c2ccc(C(=O)N(c3nccc4cc(Cl)cc(C)c34)[C@@H]3CCCNC3)c(F)c2)nn1` [Example 691, (R)—N-(6-chloro-8-methylisoquinolin-1-yl)-2-fluoro-4-(4-methyl-1H-1,2,3-triazol-1-yl)-N-(piperidin-3-yl)benzamide], the 50% inhibitory concentration (IC50) came to 110 nM.

In the case of `Cc1cccc2ccnc(N(C(=O)c3ccc(Nc4ncnc(N5CCOCC5)n4)cc3F)[C@@H]3CCCNC3)c12` [Example 970, 2-fluoro-N-(8-methylisoquinolin-1-yl)-4-{[4-(morpholin-4-yl)-1,3,5-triazin-2-yl]amino}-N-[(3R)-piperidin-3-yl]benzamide], the IC50 was 34 nM.

For the compound `O=C(O)/C=C/c1ccc2c(N(C(=O)c3ccc(-n4nnc5cccnc54)cc3F)[C@@H]3CCCNC3)nccc2c1` [Example 406, (R,E)-3-(1-(4-(3H-[1,2,3]triazolo[4,5-b]pyridin-3-yl)-2-fluoro-N-(piperidin-3-yl)benzamido)isoquinolin-6-yl)acrylic acid], the concentration for half-maximal inhibition (IC50) is greater than 10000 nM.

For `Cc1nnc(-c2ccc(C(=O)N(c3nccc4scc(Cl)c34)[C@@H]3CCCNC3)c(F)c2)s1` [Example 653, N-(3-chlorothieno[3,2-c] 690yridine-4-yl)-2-fluoro-4-(5-methyl-1,3,4-thiadiazol-2-yl)-N-[(3R)-3-piperidyl] benzamide], the concentration for half-maximal inhibition (IC50) is 180 nM.

On to `Cc1cccc2ccnc(N(C(=O)c3ccc(Nc4nccc(C5=CCNCC5)n4)cc3F)[C@@H]3CCCNC3)c12` [Example 665, (R)-2-fluoro-N-(8-methylisoquinolin-1-yl)-N-(piperidin-3-yl)-4-((4-(1,2,3,6-tetrahydropyridin-4-yl)pyrimidin-2-yl)amino)benzamide], for which the IC50 was found to be 250 nM.

As usually defined, the IC50 is the concentration at which inhibition is half-maximal.
